Laboratory results published in patent publication US20260007680A1, “Compounds and Their Use as PDE4 Activators” (Mironid Limited, priority 2022, published 2026).

Legend:
PDE4D5 = biological target: T1, PDE4D5 (Homo sapiens, UniProt Q08499); test: PDE assay, activation of PDE4D5 long form (Experiment 1); type: biochemical; conditions: 100 μM test compound; mean % increase in counts over basal activity
T1 construct: Using Full-Length Human PDE4 Isoforms; Long Forms PDE4D5, PDE4C3, PDE4B1 and Short Form PDE4B2; made in house; cytosol fraction of cell lysate
T1 sequence (Q08499 1-745 isoform Q08499-6): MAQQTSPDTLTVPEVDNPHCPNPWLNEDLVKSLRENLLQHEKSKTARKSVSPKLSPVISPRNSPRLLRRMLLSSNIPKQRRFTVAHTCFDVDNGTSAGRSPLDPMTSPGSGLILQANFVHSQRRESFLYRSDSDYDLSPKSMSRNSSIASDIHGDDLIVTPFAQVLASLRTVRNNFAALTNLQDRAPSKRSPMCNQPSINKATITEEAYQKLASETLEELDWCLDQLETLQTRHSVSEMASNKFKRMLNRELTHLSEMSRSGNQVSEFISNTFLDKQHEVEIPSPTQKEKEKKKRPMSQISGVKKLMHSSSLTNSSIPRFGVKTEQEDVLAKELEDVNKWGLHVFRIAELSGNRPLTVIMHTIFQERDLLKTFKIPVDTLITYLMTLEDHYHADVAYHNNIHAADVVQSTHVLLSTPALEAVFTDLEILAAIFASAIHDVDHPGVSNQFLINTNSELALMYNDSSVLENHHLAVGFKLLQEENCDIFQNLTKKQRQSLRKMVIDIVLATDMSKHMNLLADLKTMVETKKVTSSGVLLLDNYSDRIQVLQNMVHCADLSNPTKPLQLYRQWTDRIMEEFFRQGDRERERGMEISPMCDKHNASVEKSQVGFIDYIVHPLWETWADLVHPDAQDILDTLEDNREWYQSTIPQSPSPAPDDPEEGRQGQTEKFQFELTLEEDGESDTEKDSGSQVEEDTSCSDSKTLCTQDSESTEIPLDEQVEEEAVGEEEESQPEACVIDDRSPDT
Experimental: (§1) One suitable method of detecting whether or not a compound is capable of serving as an activator of a PDE4 long form is using a two-step radio-assay procedure described in Experiment 1. In summary, the method involves incubating a PDE4 long form with a test small molecule activator, together with [^3H]-labelled cAMP to assess alterations in the breakdown of cAMP to the 5′-adenosine monophosphate (5′-AMP) product. A sample of the reaction mixture from such an incubation is subsequently treated with snake venom 5′-nucleotidase to allow conversion of the nucleotide [^3H]-labelled 5′-AMP to the uncharged nucleoside [^3H]-labelled adenosine, which can be separated and quantified to assess PDE4 activity and the effect of the test compound (Thompson, W. J. and Appleman, M. M. Biochemistry 10: 311-316, 1971, with some modifications as described in: Marchmont, R. J. and Houslay, M. D. Biochem J. 187: 381-92, 1980).
(§2) Experiment 1: Measurement of Modulation of Enzyme Activity by PDE4 Long Form Activators of the Present Invention Using Full-Length Human PDE4 Isoforms; Long Forms PDE4D5, PDE4C3, PDE4B1 and Short Form PDE4B2 • (Marchmont, R. J. and Houslay, M. D. Biochem. J. 187: 381-92, 1980)
For transient transfection of exogenous PDE4 long isoforms, HEK 293 cells were transfected with pcDNA3.1 or pDEST^TM PDE4 expression vectors using Lipofectamine LTX/Plus reagent (Invitrogen) as outlined by the manufacturer.
(§3) Where stable cell lines were generated the clonal isolates were expanded to obtain cell lines that stably expressed the full-length human PDE4 long isoforms and the full length human PDE4B2 short isoform. These were called the HEK-PDE4D5, HEK-PDE4B1 and HEK-PDE4B2 cell lines, respectively.
HEK-PDE4D5 cells were seeded out in 100 mm plates and incubated at 37° C. in an atmosphere of 5% CO2, 95% air. Cell lysates were prepared using KHEM buffer [50 mM KCl, 10 mM EGTA, 50 mM HEPES (pH 7.2), 1.92 mM MgCl2].
To prepare the cell lysates, the 100 mm plates containing the cells were placed on ice and washed with ice-cold PBS (phosphate buffered saline, pH 7.4). KHEM buffer (500 μL) was added to the cells. Cells were then scraped off the plate and triturated using a needle (BD Microlance™ 0.8, 40 mm). The lysed cells were then centrifuged at 2000 rpm for 10 minutes to remove cell debris and the supernatant (cell lysate containing recombinant PDE4D5) was transferred to a fresh tube and kept on ice.
The cell lysate containing recombinant PDE4D5 was transferred into a centrifuge tube and placed into an ultracentrifuge (BECKMAN COULTER) and spun at high speed (100,000 g) for 30 minutes at 4° C. The cytosol fraction was then collected and its protein amount determined using a BCA protein assay.
PDE assays were performed in thin walled V-bottomed 96-well plates. The assays were performed at a final concentration of 10 mM Tris/5 mM MgCl2 plus PDE4D5 cell lysate cytosol fraction, containing over-expressed PDE4D5, with and without test compound. The lysate/compound mix were incubated together for 15 min at room temperature on an orbital shaker prior to addition of [^3H] cAMP (final concentration 1 μM [^3H] cAMP; Perkin Elmer) to a final volume of 50 μL per reaction. The reactions were then incubated for 10 minutes at 30° C., terminated by heating for 2 min at 95° C. and allowed to cool. Snake venom (12.5 μL of 1 mg/mL; Crotalus atrox, Sigma) was then added and the plates were agitated and incubated for a further 15 minutes at 30° C. Dowex ion exchange resin (Sigma, chloride form, 200-400 mesh; 200 μL; prepared as a 1:1 Dowex:water stock, thoroughly re-suspended and diluted 2:1 with ethanol) was then added to each well and the plates incubated for 15 min at room temperature on an orbital shaker ensuring sufficient agitation for resin suspension (550 RPM). The reaction mixture was then transferred to a 96 well filter plate (Millipore; 0.45 μm pore size) and filtered into a receiving 96-well plate to remove the dowex suspension. […]

PDE4B2 = biological target: T2, PDE4B2 (Homo sapiens, UniProt Q07343); test: PDE assay, PDE4B2 short form (Experiment 1); type: biochemical; conditions: 100 μM test compound; mean % increase in counts over basal activity
T2 construct: the full length human PDE4B2 short isoform; made in house; cytosol fraction of cell lysate, prepared as described for PDE4D5
T2 sequence (Q07343 1-564 isoform Q07343-2): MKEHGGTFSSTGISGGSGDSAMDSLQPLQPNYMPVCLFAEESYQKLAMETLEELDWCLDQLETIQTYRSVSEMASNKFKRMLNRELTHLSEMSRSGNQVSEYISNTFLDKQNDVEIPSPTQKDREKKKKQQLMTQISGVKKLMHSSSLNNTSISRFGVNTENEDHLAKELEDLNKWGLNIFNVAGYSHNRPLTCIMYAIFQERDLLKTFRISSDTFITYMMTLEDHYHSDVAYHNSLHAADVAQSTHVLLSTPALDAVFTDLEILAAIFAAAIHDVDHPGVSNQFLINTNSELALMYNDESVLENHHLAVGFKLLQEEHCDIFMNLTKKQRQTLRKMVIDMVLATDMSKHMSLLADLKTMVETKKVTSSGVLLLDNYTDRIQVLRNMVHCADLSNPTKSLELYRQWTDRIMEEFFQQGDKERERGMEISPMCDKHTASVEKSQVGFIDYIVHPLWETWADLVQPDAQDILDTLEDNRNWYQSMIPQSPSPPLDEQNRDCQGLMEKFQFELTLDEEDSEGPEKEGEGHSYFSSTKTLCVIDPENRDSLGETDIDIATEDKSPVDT
Experimental: as §1, §2, §3
PDE assays were performed in thin walled V-bottomed 96-well plates. The assays were performed at a final concentration of 10 mM Tris/5 mM MgCl2 plus PDE4D5 cell lysate cytosol fraction, containing over-expressed PDE4D5, with and without test compound. The lysate/compound mix were incubated together for 15 min at room temperature on an orbital shaker prior to addition of [^3H] cAMP (final concentration 1 μM [^3H] cAMP; Perkin Elmer) to a final volume of 50 μL per reaction. The reactions were then incubated for 10 minutes at 30° C., terminated by heating for 2 min at 95° C. and allowed to cool. Snake venom (12.5 μL of 1 mg/mL; Crotalus atrox, Sigma) was then added and the plates were agitated and incubated for a further 15 minutes at 30° C. Dowex ion exchange resin (Sigma, chloride form, 200-400 mesh; 200 μL; prepared as a 1:1 Dowex:water stock, thoroughly re-suspended and diluted 2:1 with ethanol) was then added to each well and the plates incubated for 15 min at room temperature on an orbital shaker ensuring sufficient agitation for resin suspension (550 RPM). The reaction mixture was then transferred to a 96 well filter plate (Millipore; 0.45 μm pore size) and filtered into a receiving 96-well plate to remove the dowex suspension. 30 μL of the filtered solution was then transferred to the wells of an Opti-plate (Perkin Elmer) 96 well assay plate and 120 μL of Microscint 40 scintillation fluid was added. The plate was then placed on an orbital shaker for 10 min at high speed (900 rpm) to mix the sample with scintillation fluid prior to quantitation using a plate based scintillation counter (Top-Count).
The % increase in counts in the presence of test compound at a particular concentration indicates the % increase in enzyme activity at that concentration.

Row | SMILES | activation at 100 µM (PDE4D5) [%] | activation at 100 µM (PDE4B2) [%]
1 | O=C(N[C@H]1CCOc2ccccc21)c1ccc2[nH]c(-c3cccnc3)nc2c1 [Example 8, (S)—N-(chroman-4-yl)-2-(pyridin-3-yl)-1H-benzo[d]imidazole-5-carboxamide] | 52 | -35
2 | O=C(N[C@H]1CCc2ccccc21)c1ccc2[nH]c(-c3cccnc3)nc2c1 [Example 10, (S)—N-(2,3-dihydro-1H-inden-1-yl)-2-(pyridin-3-yl)-1H-benzo[d]imidazole-5-carboxamide] | 46 | -35
3 | CN1CCC(c2nc3cc(C(=O)N[C@H]4CCCc5ccccc54)ccc3[nH]2)CC1 [Example 15, (S)-2-(1-methylpiperidin-4-yl)-N-(1,2,3,4-tetrahvdronaphthalen-1-yl)-1H-benzo[d]imidazole-5-carboxamide] | 123 | 3
4 | O=C(N[C@@H]1CCOc2ccc(Cl)cc21)c1ccc2[nH]c(-c3cccnc3)nc2c1 [Example 11, (R)—N-(6-chlorochroman-4-yl)-2-(pyridin-3-yl)-1H-benzo[d]imidazole-5-carboxamide] | 35 | –

Next, values leading:

Row | activation at 100 µM (PDE4D5) [%] | activation at 100 µM (PDE4B2) [%] | SMILES
5 | 63 | -28 | Cc1ccc(-c2nc3ccc(C(=O)N[C@H]4CCOc5ccccc54)cn3n2)c(C)n1 [Example 39, (S)—N-(chroman-4-yl)-2-(2,6-dimethylpyridin-3-yl)-[1,2,4]triazolo[1,5-a]pyridine-6-carboxamide]
6 | 68 | -11 | Cc1ccc(-c2nc3ccc(C(=O)N[C@H]4CCOc5ccccc54)cn3n2)cn1 [Example 35, (S)—N-(chroman-4-yl)-2-(6-methylpyridin-3-yl)-[1,2,4]triazolo[1,5-a]pyridine-6-carboxamide]
7 | 176 | 0 | O=C(N[C@H]1CCOc2ccccc21)c1ccc2nc(-c3cccnc3)nn2c1 [Example 34, (S)—N-(chroman-4-yl)-2-(pyridin-3-yl)-[1,2,4]triazolo[1,5-a]pyridine-6-carboxamide]
8 | 57 | 6 | Cc1cncc(-c2nc3ccc(C(=O)N[C@H]4CCOc5ccccc54)cn3n2)c1 [Example 36, (S)—N-(chroman-4-yl)-2-(5-methylpyridin-3-yl)-[1,2,4]triazolo[1,5-a]pyridine-6-carboxamide]
9 | 127 | -24 | Cc1ccncc1-c1nc2ccc(C(=O)N[C@H]3CCOc4ccccc43)cn2n1 [Example 37, (S)—N-(chroman-4-yl)-2-(4-methylpyridin-3-yl)-[1,2,4]triazolo[1,5-a]pyridine-6-carboxamide]
10 | 99 | -8 | O=C(N[C@H]1CCOc2ccccc21)c1cnc2cc(-c3cccnc3)nn2c1 [Example 90, (S)—N-(chroman-4-yl)-2-(pyridin-3-yl)pyrazolo[1,5-a]pyrimidine-6-carboxamide]
